The text below walks through data of ChEMBL document CHEMBL1135170, “4,4-Disubstituted cyclohexylamine NK(1) receptor antagonists II” (Bioorg Med Chem Lett, 2002).

Series [1] has as its system Gerbillinae. The experiment in a line: Compound was evaluated for the inhibition of GR 73632-induced foot tapping in gerbils after intravenous administration at 24 hr at a concentration of 3 mg/kg. Type of series: functional.
The subject of series [2] is Gerbillinae. The series is described as follows: Compound was evaluated for the inhibition of GR 73632-induced foot tapping in gerbils after intravenous administration at 2 hour. Type of series: functional. As to conditions: read-out: ID50 (the source's name).
Series [3] has as its target Substance-P receptor (Homo sapiens, UniProt P25103). The experiment in a line: Displacement of [125 I] -labelled substance P from the cloned Tachykinin receptor 1 expressed in CHO cells. Type of series: cell-based.
Series [4] deals with Voltage-gated inwardly rectifying potassium channel KCNH2 (Homo sapiens, UniProt Q12809). The experiment in a line: Compound was evaluated for the displacement of labelled MK-499 from the cloned channel expressed in HEK cells (Ikr channel). The series is classed as cell-based, HEK293.
The test system of series [5] is Gerbillinae. The experiment in a line: Compound was evaluated for the inhibition of GR 73632-induced foot tapping in gerbils after intravenous administration at 24 hr. Conditions: read-out: ID50 (the source's name). The series is classed as functional.
The test system of series [6] is Gerbillinae. The experiment in a line: Compound was evaluated for the inhibition of GR 73632-induced foot tapping in gerbils after intravenous administration at 0 (initial) hour. Type of series: functional. Conditions: read-out: ID50 (the source's name).
In series [7] the test system is Gerbillinae. The experiment in a line: Compound was evaluated for the inhibition of GR 73632-induced foot tapping in gerbils after intravenous administration. Type of series: functional. As to conditions: read-out: ID50 (the source's name).
Series [8] relates to Gerbillinae. The series is described as follows: Compound was evaluated for the inhibition of GR 73632-induced foot tapping in gerbils after intravenous administration at 2 hour at a dose 3 mg/kg iv. The series is classed as functional.
A short description of series [9]: Bioavailability in rat. Type of series: ADME, organism-based. As to conditions: in vivo.
Series [10] concerns Gerbillinae. The experiment in a line: Compound was evaluated for the inhibition of GR 73632-induced foot tapping in gerbils 2 hour after oral administration. Type of series: functional. Conditions: read-out: ID50 (the source's name).

Voltage-gated inwardly rectifying potassium channel KCNH2, sequence (Q12809 whole entry): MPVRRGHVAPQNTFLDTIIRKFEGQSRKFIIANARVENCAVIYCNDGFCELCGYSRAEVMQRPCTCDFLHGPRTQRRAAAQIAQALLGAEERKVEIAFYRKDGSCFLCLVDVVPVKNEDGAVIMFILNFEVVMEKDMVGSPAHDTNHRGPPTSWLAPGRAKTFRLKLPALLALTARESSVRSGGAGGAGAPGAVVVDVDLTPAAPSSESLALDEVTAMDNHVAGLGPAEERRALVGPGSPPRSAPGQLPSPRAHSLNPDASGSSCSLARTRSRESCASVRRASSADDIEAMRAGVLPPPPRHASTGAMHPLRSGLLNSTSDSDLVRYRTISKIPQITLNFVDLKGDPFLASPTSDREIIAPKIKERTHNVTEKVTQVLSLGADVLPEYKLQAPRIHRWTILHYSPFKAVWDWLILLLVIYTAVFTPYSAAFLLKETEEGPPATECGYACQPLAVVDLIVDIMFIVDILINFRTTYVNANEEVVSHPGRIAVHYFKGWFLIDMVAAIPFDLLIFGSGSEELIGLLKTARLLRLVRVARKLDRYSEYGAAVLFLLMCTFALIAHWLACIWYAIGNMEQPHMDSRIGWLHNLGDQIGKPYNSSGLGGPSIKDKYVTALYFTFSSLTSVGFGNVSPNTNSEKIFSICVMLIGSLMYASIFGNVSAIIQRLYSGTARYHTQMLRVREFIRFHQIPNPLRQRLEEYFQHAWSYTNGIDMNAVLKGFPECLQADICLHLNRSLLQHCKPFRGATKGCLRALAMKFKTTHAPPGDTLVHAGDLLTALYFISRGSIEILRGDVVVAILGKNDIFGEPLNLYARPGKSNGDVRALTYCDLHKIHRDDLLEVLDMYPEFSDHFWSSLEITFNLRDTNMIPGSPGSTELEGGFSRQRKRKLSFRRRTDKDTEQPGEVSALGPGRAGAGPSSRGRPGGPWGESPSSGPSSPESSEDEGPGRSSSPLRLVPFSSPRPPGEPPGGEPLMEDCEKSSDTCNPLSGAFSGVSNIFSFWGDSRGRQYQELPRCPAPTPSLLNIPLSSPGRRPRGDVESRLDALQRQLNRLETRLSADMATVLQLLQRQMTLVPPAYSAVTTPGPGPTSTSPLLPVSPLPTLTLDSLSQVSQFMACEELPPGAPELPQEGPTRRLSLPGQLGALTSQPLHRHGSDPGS
Substance-P receptor, sequence (P25103 whole entry): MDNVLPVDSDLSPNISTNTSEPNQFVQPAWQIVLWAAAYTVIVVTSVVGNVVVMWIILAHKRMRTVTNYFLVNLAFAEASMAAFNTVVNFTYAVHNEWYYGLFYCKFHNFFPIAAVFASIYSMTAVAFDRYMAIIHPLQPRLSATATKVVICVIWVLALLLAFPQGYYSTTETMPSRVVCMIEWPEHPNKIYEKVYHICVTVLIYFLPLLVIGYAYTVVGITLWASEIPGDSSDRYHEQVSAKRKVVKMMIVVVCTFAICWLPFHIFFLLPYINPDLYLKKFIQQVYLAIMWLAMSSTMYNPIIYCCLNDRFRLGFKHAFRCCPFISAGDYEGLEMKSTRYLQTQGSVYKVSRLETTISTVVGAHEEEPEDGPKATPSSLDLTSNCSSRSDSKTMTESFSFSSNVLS

As a reminder, the inhibition in vivo is how much of the control response was suppressed. A lower inhibition in vivo goes with a weak effect. As usually defined, the IC50 is the midpoint of a concentration-inhibition curve. A lower IC50 goes with greater potency. Usually Ki stands for a dissociation constant, usually derived from enzyme kinetics or from competition with a known ligand. Take `CC(C(=O)NC1(c2ccccc2)CCC(N2CCC3(CC2)CCC(C)(C)O3)CC1)c1cc(C(F)(F)F)cc(C(F)(F)F)c1` (configuration not stated): the inhibition in vivo at 3 mg/kg in series [1] is 72%. In addition, the ED50 in [2] worked out at 1 mg/kg. The compound also came in with an IC50 in [3] of 0.35 nM. Also, the Ki in series [4] was 950 nM.

For `CC(C(=O)N[C@]1(c2ccccc2)CC[C@@H](N2CCC3(CC2)OCCO3)CC1)c1cc(C(F)(F)F)cc(C(F)(F)F)c1` (some centres not stated), the ED50 in [5] was 5.4 mg/kg. For the same compound, the IC50 in series [3] is 0.3 nM.

`CC(C(=O)N[C@]1(c2ccccc2)CC[C@@H](N2CCN(C(C)C)CC2)CC1)c1cc(C(F)(F)F)cc(C(F)(F)F)c1` (some centres not stated) had a concentration for half-maximal inhibition (IC50) in series [3] of 0.39 nM.

`CC(C(=O)NC1(c2ccccc2)CCC(N2CCC3(CCOC3=O)CC2)CC1)c1cc(C(F)(F)F)cc(C(F)(F)F)c1` (configuration not stated): in series [3], the half-maximal inhibitory concentration (IC50) is 0.42 nM. In series [4], affinity was put at a Ki of 490 nM.

In series [3], `CC(C(=O)N[C@]1(c2ccccc2)CC[C@@H](N2CCC(O)CC2)CC1)c1cc(C(F)(F)F)cc(C(F)(F)F)c1` (some centres not stated) registered an IC50 of 0.85 nM. Also, the Ki in series [4] is 1400 nM.

`CC(C(=O)N[C@]1(c2ccccc2)CC[C@@H](N2CCC(=O)CC2)CC1)c1cc(C(F)(F)F)cc(C(F)(F)F)c1` (some centres not stated): in series [3], the IC50 came to 1.6 nM.

Compound `CC(C(=O)N[C@]1(c2ccccc2)CC[C@H](N2CCCCC2)CC1)c1cc(C(F)(F)F)cc(C(F)(F)F)c1` (some centres not stated) showed an IC50 in [3] of 2.4 nM.

`CC(C(=O)N[C@]1(c2ccccc2)CC[C@H](N(C)C)CC1)c1cc(C(F)(F)F)cc(C(F)(F)F)c1` (some centres not stated) came in with an IC50 in series [3] of 22 nM.

Regarding `CC(C(=O)N[C@]1(c2ccccc2)CC[C@@H](N2CCC(c3ccc(F)cc3)CC2)CC1)c1cc(C(F)(F)F)cc(C(F)(F)F)c1` (some centres not stated), the ED50 in [5] is 1.8 mg/kg; in [6], 1.7 mg/kg; in series [2] it was 0.6 mg/kg. Further, the Ki in series [4] stood at 43 nM.

As to `CC(C(=O)NC1(c2ccccc2)CCC(N2CCC3(CCCO3)CC2)CC1)c1cc(C(F)(F)F)cc(C(F)(F)F)c1` (configuration not stated), the ED50 in series [5] turned out to be 3.1 mg/kg; in series [2], 0.7 mg/kg. Also, the IC50 in [3] came out at 0.22 nM. In addition, the Ki in series [4] is 730 nM.

As for `CC1CCN([C@H]2CC[C@](NC(=O)C(C)c3cc(C(F)(F)F)cc(C(F)(F)F)c3)(c3ccccc3)CC2)CC1` (some centres not stated), the IC50 in [3] turned out to be 1.2 nM. The compound further displayed a Ki in series [4] of 460 nM.

In series [3], `CC(C(=O)NC1(c2ccccc2)CCC(N2CCC(O)(Cc3ccccc3)CC2)CC1)c1cc(C(F)(F)F)cc(C(F)(F)F)c1` (configuration not stated) came in with an IC50 of 0.33 nM. For the same compound, in series [4], the Ki was 260 nM.

The term bioavailability denotes the share of a dose that reaches the circulation, judged against a reference dose that is usually intravenous. Consider `O=C(NCc1cc(C(F)(F)F)cc(C(F)(F)F)c1)[C@]1(c2ccccc2)CC[C@@H](N2CCC(c3ccc(F)cc3)CC2)CC1`, for which the ED50 in series [7] came out at 1.9 mg/kg. In series [3], the IC50 turned out to be 0.34 nM. This compound also gave an inhibition in vivo at 3 mg/kg in series [8] of 15%. In series [9], this compound gave a bioavailability of 70%.

`CC(C(=O)NC1(c2ccccc2)CCC(N2CCC3(CCC(=O)O3)CC2)CC1)c1cc(C(F)(F)F)cc(C(F)(F)F)c1` (configuration not stated) yielded a half-inhibitory concentration (IC50) in series [3] of 2.1 nM. Also, the affinity in [4], expressed as Ki, was 400 nM.

Consider `CC(C(=O)NC1(c2ccccc2)CCC(N2CCC3(CCOC3)CC2)CC1)c1cc(C(F)(F)F)cc(C(F)(F)F)c1` (configuration not stated), for which the ED50 in series [5] worked out at 1.6 mg/kg; in series [6], 1.4 mg/kg; in series [2] it was 1.1 mg/kg; in series [10], 2.2 mg/kg. The compound also had an IC50 in series [3] of 0.34 nM.
